How the values were obtained:
YAP-TEAD = YAP-TEAD inhibitor activity by Nano luciferase method (8xGTiiC-nLuc reporter in 293T cells); format: cell-based; details: Homo sapiens, HEK-293T, 48 hours incubation, read-out: Nano-luciferase detection (IC50)
In short: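 293T cells transiently transfected with pGL3B-8xGTiiC-nLuc-CMV-fLuc, seeded 2000 cells/well, then treated 48 h at 37 °C with compounds in 1:3.16 dilution series (top 10,000 nM). Nano luciferase signal read after cell lysis; IC50 from percent of 0 nM control.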

[1] = system: human pleural mesothelioma cells NCI-H226; experiment: Cell anti-proliferation experiment (CCK8), NCI-H226; format: cell-based
In short: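 Viability was measured by CCK-8 (3 h, A450) after 3-day treatment with 0.15–333.33 nM compound in 0.1% DMSO medium. Curve-fitted IC50 was based on viability normalised to no-drug and cell-free controls.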

SMILES	IC50 (YAP-TEAD) [nM]	IC50 [1] [nM]
Cn1cc2c(=O)n(-c3ccc(C(F)(F)F)cc3)c3ccc(C(=O)NCc4ccncn4)cc3c2n1 [Example T-133]	1000 to 5000	1000 to 5000
COc1ccnc([C@@H](C)NC(=O)c2ccc3c(c2)c2nn(C)cc2c(=O)n3-c2ccc(C(F)(F)F)cc2)c1 [Example T-136]	1000 to 5000	1000 to 5000
O=C(c1ccc2c(ccc(=O)n2-c2ccc(C(F)(F)F)cc2)c1)N1CC(O)C1 [Example T-22]	1000 to 5000	1000 to 5000
CC(=O)Nc1ccc2c(c1)c1nn(C)cc1c(=O)n2-c1ccc(C(F)(F)F)cc1 [Example T-175]	≤ 1000	≤ 1000
C[C@H](NC(=O)c1ccc2c(c1)c1nn(C)cc1c(=O)n2-c1ccc(C(F)(F)F)cc1)c1cccnc1 [Example T-146]	1000 to 5000	1000 to 5000
CC(C)NC(=O)c1ccc2c(c1)c1nn(C)cc1c(=O)n2-c1ccc(C(F)(F)F)cc1 [Example T-86]	≤ 1000	≤ 1000
Cn1cc2c(=O)n(-c3ccc(C(F)(F)F)cc3)c3ccc(C(=O)NCc4cnccn4)cc3c2n1 [Example T-140]	1000 to 5000	1000 to 5000
CNS(=O)(=O)c1ccc2c(c1)c1ncn(CCOC)c1c(=O)n2-c1ccc(C(F)(F)F)cc1 [Example T-20]	≤ 1000	≤ 1000
CNc1cccc([C@H](C)NC(=O)c2ccc3c(c2)c2nn(C)cc2c(=O)n3-c2ccc(C(F)(F)F)cc2)n1 [Example T-149]	≤ 1000	≤ 1000
CCS(=O)(=O)Nc1ccc2c(c1)c1nn(C)cc1c(=O)n2-c1ccc(C(F)(F)F)cc1 [Example T-188]	≤ 1000	≤ 1000
CNS(=O)(=O)c1ccc2c(c1)c1ncn(C)c1c(=O)n2-c1ccccc1 [Example T-60]	≤ 1000	≤ 1000
CC(C)NC(=O)c1ccc2c(c1)cc(Br)c(=O)n2-c1ccc(C(F)(F)F)cc1 [Example T-50]	1000 to 5000	1000 to 5000
Cc1ccc([C@H](C)NC(=O)c2ccc3c(c2)c2nn(C)cc2c(=O)n3-c2ccc(C(F)(F)F)cc2)nc1 [Example T-124]	1000 to 5000	1000 to 5000
C[C@@H](NC(=O)c1ccc2c(c1)c(=O)ccn2-c1ccc(C(F)(F)F)cc1)c1ccccn1 [Example T-34]	≤ 1000	1000 to 5000
CC/C=C/C(=O)Nc1ccc2c(c1)c1nn(C)cc1c(=O)n2-c1ccc(C(F)(F)F)cc1 [Example T-234]	≤ 1000	≤ 1000
C[C@H](NC(=O)c1cnc2c(c1)c1nn(C)cc1c(=O)n2-c1ccc(C(F)(F)F)cc1)c1ccccn1 [Example T-243]	≤ 1000	≤ 1000
CNS(=O)(=O)c1ccc2c(c1)-c1ncn(C)c1CN2c1ccc(C(F)(F)F)cc1 [Example T-7]	≤ 1000	≤ 1000
COc1ccnc([C@H](C)NC(=O)c2ccc3c(c2)c2nn(C)cc2c(=O)n3-c2ccc(C(F)(F)F)cc2)c1 [Example T-143]	1000 to 5000	1000 to 5000
N#CC1CN(C(=O)c2ccc3c(ccc(=O)n3-c3ccc(C(F)(F)F)cc3)c2)C1 [Example T-21]	1000 to 5000	1000 to 5000
CNS(=O)(=O)c1ccc2c(c1)c1c(cnn1C)c(=O)n2-c1ccc(C(F)(F)F)cc1 [Example T-195]	1000 to 5000	1000 to 5000
Cn1cc2c(=O)n(-c3ccc(C(F)(F)F)cc3)c3ccc(C(N)=O)cc3c2n1 [Example T-114]	1000 to 5000	≤ 1000
COc1cccnc1[C@@H](C)NC(=O)c1ccc2c(c1)c1nn(C)cc1c(=O)n2-c1ccc(C(F)(F)F)cc1 [Example T-135]	1000 to 5000	1000 to 5000
COC[C@H](C)NC(=O)c1ccc2c(c1)-c1ncn(C)c1CN2c1ccc(C(F)(F)F)cc1 [Example T-16]	≤ 1000	≤ 1000
C=CC(=O)Nc1ccc2c(c1)c1nn(C)cc1c(=O)n2-c1ccc(OC(F)(F)F)cc1 [Example T-232]	≤ 1000	≤ 1000
Cn1cc2c(=O)n(-c3ccc(C(F)(F)F)cc3)c3ccc(NS(=O)(=O)c4ccc(F)cc4)cc3c2n1 [Example T-187]	≤ 1000	≤ 1000
C[C@H](NC(=O)c1ccc2c(c1)c1nn(C)cc1c(=O)n2-c1ccc(S(F)(F)(F)(F)F)cc1)c1ccccn1 [Example T-227]	≤ 1000	≤ 1000
Cn1cc2c(=O)n(-c3ccc(C(F)(F)F)cc3)c3ccc(NS(=O)(=O)c4ccccc4)cc3c2n1 [Example T-186]	≤ 1000	≤ 1000
C[C@H](NC(=O)c1ccc2c(c1)c1nn(C)cc1c(=O)n2-c1ccc(OC(F)(F)F)cc1)c1ccccn1 [Example T-229]	≤ 1000	≤ 1000
C=C(C)C(=O)Nc1ccc2c(c1)c1nn(C)cc1c(=O)n2-c1ccc(C(F)(F)F)cc1 [Example T-236]	≤ 1000	≤ 1000
O=C(O)c1ccc2c(c1)c(=O)ccn2-c1ccc(C(F)(F)F)cc1 [Example T-5]	≤ 1000	1000 to 5000

The next lines start with the values.

IC50 (YAP-TEAD) [nM]	IC50 [1] [nM]	SMILES
≤ 1000	≤ 1000	C[C@H](NC(=O)c1ccc2c(c1)c1c(c(=O)n2-c2ccc(C(F)(F)F)cc2)CCC(F)C1)c1ccccn1 (some centres unmarked) [Example T-303]
≤ 1000	≤ 1000	C[C@H](NC(=O)c1cnc2c(c1)c1sc(Cl)c(Br)c1c(=O)n2-c1ccc(C(F)(F)F)cc1)c1ccccn1 [Example T-405]
≤ 1000	≤ 1000	CNS(=O)(=O)c1ccc2c(c1)cc(C)c(=O)n2-c1ccc(C(F)(F)F)cc1 [Example T-421]
≤ 1000	≤ 1000	C[C@H](NC(=O)c1ccc2c(n1)c1ccccc1c(=O)n2-c1ccc(C(F)(F)F)cc1)c1ccccn1 [Example T-403]
≤ 1000	≤ 1000	C[C@H](NC(=O)c1ccc2c(c1)c1c(c(=O)n2-c2ccc(C(F)(F)F)cc2)CCC1)c1ccccn1 [Example T-249]
≤ 1000	≤ 1000	Cc1c(C)c2cc(C(=O)N[C@@H](C)c3ccccn3)ccc2n(-c2ccc(C(F)(F)F)cc2)c1=O [Example T-436]
≤ 1000	≤ 1000	C[C@H](NC(=O)c1ccc2c(c1)c1nnccc1c(=O)n2-c1ccc(C(F)(F)F)cc1)c1ccccn1 [Example T-334]
≤ 1000	≤ 1000	C[C@H](NC(=O)c1ccc2c(c1)c1ncccc1c(=O)n2-c1ccc(C(F)(F)F)cc1)c1ccccn1 [Example T-252]
≤ 1000	≤ 1000	C[C@H](NC(=O)c1ccc2c(c1)c1ccccc1c(=O)n2C1CCC(F)(F)CC1)c1ccccn1 [Example T-268]
1000 to 5000	1000 to 5000	Cc1scc2c1c(=O)n(-c1ccc(C(F)(F)F)cc1)c1ncc(C(=O)N[C@@H](C)c3ccccn3)cc21 [Example T-373]
≤ 1000	≤ 1000	C[C@H](NC(=O)c1cnc2c(c1)c1cscc1c(=O)n2-c1ccc(C(F)(F)F)cc1)c1ccccn1 [Example T-246]
≤ 1000	≤ 1000	C[C@H](NC(=O)c1ccc2c(c1)c1cc(F)ccc1c(=O)n2-c1ccc(C(F)(F)F)cc1)c1ccccn1 [Example T-259]
≤ 1000	≤ 1000	Cc1cc2cc(C(=O)N[C@@H](C)c3ccccn3)cnc2n(-c2ccc(C(F)(F)F)cc2)c1=O [Example T-460]
≤ 1000	≤ 1000	C[C@H](NC(=O)c1cnc2c(ccc(=O)n2-c2ccc(C(F)(F)F)cc2)c1)c1ccccn1 [Example T-456]
≤ 1000	≤ 1000	C[C@H](NC(=O)c1cnc2c(c1)c1cscc1c(=O)n2-c1ccc(C(F)(F)F)cc1)c1cccc(N)n1 [Example T-454]
≤ 1000	≤ 1000	C[C@H](NC(=O)c1ccc2c(c1)c1cccnc1c(=O)n2-c1ccc(C(F)(F)F)cc1)c1ccccn1 [Example T-254]
≤ 1000	≤ 1000	C[C@H](NC(=O)c1cnc2c(ccc(=O)n2-c2ccc(C(F)(F)F)cc2)c1)c1cccc(N)n1 [Example T-455]
≤ 1000	≤ 1000	CNS(=O)(=O)c1ccc2c(c1)c1c(c(=O)n2-c2ccc(C(F)(F)F)cc2)CCC1 [Example T-427]
≤ 1000	≤ 1000	Cc1cc(=O)n(-c2ccc(C(F)(F)F)cc2)c2ncc(C(=O)N[C@@H](C)c3ccccn3)cc12 [Example T-458]
≤ 1000	≤ 1000	Cc1cc2cc(C(=O)N[C@@H](C)c3ccccn3)ccc2n(-c2ccc(C(F)(F)F)cc2)c1=O [Example T-415]
≤ 1000	≤ 1000	C[C@H](NC(=O)c1ccc2c(c1)c1ncccc1c(=O)n2-c1ccc(C(F)(F)F)cc1)c1cccc(N)n1 [Example T-419]
≤ 1000	≤ 1000	C=CC(=O)Nc1ccc2c(c1)c1nscc1c(=O)n2-c1ccc(C(F)(F)F)cc1 [Example T-418]
≤ 1000	≤ 1000	C[C@H](NC(=O)c1ccc2c(c1)c1cnccc1c(=O)n2-c1ccc(C(F)(F)F)cc1)c1cccc(N)n1 [Example T-434]
≤ 1000	≤ 1000	C[C@H](NC(=O)c1ccc2c(c1)c1ncncc1c(=O)n2-c1ccc(C(F)(F)F)cc1)c1ccccn1 [Example T-332]
≤ 1000	≤ 1000	C[C@H](NC(=O)c1cnc2c(c1)C1CCCCC1C(=O)N2c1ccc(C(F)(F)F)cc1)c1ccccn1 (some centres unmarked) [Example T-247]
≤ 1000	≤ 1000	C[C@H](NC(=O)c1ccc2c(c1)c1c(Cl)scc1c(=O)n2-c1ccc(C(F)(F)F)cc1)c1ccccn1 [Example T-301]
≤ 1000	≤ 1000	C[C@H](NC(=O)c1ccc2c(c1)c1cscc1c(=O)n2-c1ccc(C(F)(F)F)nc1)c1ccccn1 [Example T-264]
≤ 1000	≤ 1000	C=C1c2cn(C)nc2-c2cc(C(=O)N[C@@H](C)c3ccccn3)ccc2N1c1ccc(C(F)(F)F)cc1 [Example T-324]
